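Tested at 5 concentrations; 48 h exposure; 96-well plates; endpoints linearly interpolated, else capped at highest concentration. GI50 = concentration required for 50% inhibition of growth.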 Activity calls are given as the source filed them. Cut-off read from the data, not from the text of the source: active = GI50 up to about 1.1 µM and inactive = higher.
Key:
Assay in all cases: DTP human tumour cell line panel, 48 h
[1] = tested on: M14
[2] = tested on: KM12
[3] = tested on: OVCAR-4
[4] = tested on: HCC 2998
[5] = tested on: SNB-19
[6] = tested on: A498
[7] = tested on: CAKI-1
[8] = tested on: NCI-H23
[9] = tested on: K562
[10] = tested on: HCT-116
[11] = tested on: SK-MEL-2
[12] = tested on: UACC-257
[13] = tested on: U-251
[14] = tested on: Malme-3M
[15] = tested on: SK-MEL-5
[16] = tested on: LOX IMVI

Measured: GI50

Oc1cc(C2OCCCO2)cc(O)c1O
inactive: [1] > 100 µM | [2] > 100 µM | [3] > 100 µM | [4] > 100 µM | [5] > 100 µM | [6] > 100 µM | [7] > 100 µM | [8] > 100 µM | [9] > 100 µM | [10] > 100 µM | [11] > 100 µM | [12] > 100 µM | [13] > 100 µM | [14] > 100 µM | [15] > 100 µM

COc1ccccc1/N=N/C(C(=O)c1ccccc1)C(=O)c1ccccc1
inactive: [1] 15 µM | [2] 29.2 µM | [3] 9.53 µM | [4] 27.1 µM | [5] 17.2 µM | [6] 25.2 µM | [7] 25.2 µM | [8] 19.2 µM | [9] 16.9 µM | [16] 17.9 µM | [10] 11.5 µM | [11] 20.7 µM | [12] 28.4 µM | [13] 18.5 µM | [14] 25.4 µM | [15] 18 µM

C[Si](C)(C)C(CCCCSc1ccccc1)(Sc1ccccc1)Sc1ccccc1
inactive: [2] > 100 µM | [3] > 100 µM | [4] > 100 µM | [5] > 100 µM | [6] > 100 µM | [7] > 100 µM | [8] 68.1 µM | [9] > 100 µM | [16] > 100 µM | [10] > 100 µM | [11] > 100 µM | [12] > 100 µM | [13] 85.5 µM | [15] > 100 µM

CC(=O)NC(CC(C)C)C(=O)NC(Cc1ccccc1)C(=S)N1CCCC1 (stereo not drawn)
inactive: [1] > 100 µM | [2] > 100 µM | [3] > 100 µM | [4] > 100 µM | [5] > 100 µM | [6] > 100 µM | [7] > 100 µM | [8] > 100 µM | [9] > 100 µM | [16] > 100 µM | [11] > 100 µM | [12] > 100 µM | [13] > 100 µM | [14] > 100 µM | [15] > 100 µM

CCOC(=O)C1=C(Nc2ccc(Br)cc2)OC/C1=N\NC(=O)c1ccccc1O
inactive: [1] 23.5 µM | [2] 21.5 µM | [3] 26.2 µM | [4] 20.3 µM | [5] 10.9 µM | [6] > 47.3 µM | [7] 6.49 µM | [8] 6.52 µM | [9] 7.06 µM | [16] 5.37 µM | [10] 10.1 µM | [11] 15.1 µM | [12] 23 µM | [13] 9.23 µM | [14] 35.4 µM | [15] 49.7 µM

COC(=O)C1C=CCC2CCCCC21N1CCCC1 (stereo not drawn)
inactive: [1] > 100 µM | [2] 53.6 µM | [3] > 100 µM | [4] 69.2 µM | [5] 82.2 µM | [6] > 100 µM | [7] > 100 µM | [16] > 100 µM | [10] 46.1 µM | [12] > 100 µM | [13] 40.4 µM | [14] > 100 µM | [15] 84.3 µM

O=C(NC1C=Nc2ccccc2NC1=O)c1ccccc1Cl (stereo not drawn)
inactive: [1] 80.5 µM | [2] 50.7 µM | [3] 33.3 µM | [4] 56.4 µM | [5] > 100 µM | [6] 28.8 µM | [7] 46.8 µM | [8] 43.9 µM | [9] 11.1 µM | [16] 18.2 µM | [10] 39.1 µM | [11] 36.9 µM | [12] 38.5 µM | [13] 28.8 µM | [14] 58.1 µM | [15] 45.8 µM

Oc1cc(-c2ccccc2)c2ccccc2n1
inactive: [1] 41.8 µM | [2] 71.4 µM | [3] 73.6 µM | [7] 13.4 µM | [8] 84.7 µM | [9] 65.5 µM | [16] 57.9 µM | [10] 64.7 µM | [11] 72.1 µM | [12] 61 µM | [13] 69.5 µM | [14] 24.9 µM | [15] 16.6 µM

CCOc1ccc(NC(=O)CC2SC(Nc3ccc(C)cc3C)=NC2=O)cc1 (stereo not drawn)
inactive: [1] > 100 µM | [3] 90.8 µM | [4] > 100 µM | [5] 54.3 µM | [6] > 100 µM | [7] > 100 µM | [8] > 100 µM | [9] 52 µM | [16] > 100 µM | [10] > 100 µM | [11] > 100 µM | [12] 85.7 µM | [13] 36 µM | [14] > 100 µM | [15] > 100 µM

COC(=O)/C(C)=C(/CCC1(C)OCCO1)O[Si](C)(C)C
inactive: [1] > 100 µM | [2] > 100 µM | [3] > 100 µM | [4] > 100 µM | [5] > 100 µM | [7] > 100 µM | [8] > 100 µM | [9] > 100 µM | [16] > 100 µM | [10] > 100 µM | [11] > 100 µM | [12] > 100 µM | [13] > 100 µM | [14] > 100 µM | [15] > 100 µM

N#CC(NNC(=O)Cc1ccccc1)c1ccc(O)cc1 (stereo not drawn)
inactive: [1] > 100 µM | [2] > 100 µM | [3] > 100 µM | [7] > 100 µM | [8] > 100 µM | [9] > 100 µM | [16] > 100 µM | [10] > 100 µM | [11] > 100 µM | [12] > 100 µM | [13] > 100 µM | [14] > 100 µM | [15] > 100 µM

CCOC(=O)C1(C)C2=CC=C(O2)C(C)(C)C2=CC=C(O2)C(C)(C)C2=CC=C(O2)C(C)(C)C2=CC=C1O2
inactive: [2] > 100 µM | [3] 3.44 µM | [4] > 100 µM | [5] > 100 µM | [6] > 100 µM | [7] > 100 µM | [8] > 100 µM | [9] > 100 µM | [16] > 100 µM | [10] 46.9 µM | [11] > 100 µM | [12] > 100 µM | [13] 48.3 µM | [14] > 100 µM

[N-]=[N+]=Nc1ccc(CCN2CCN(c3cccc(C(F)(F)F)c3)CC2)cc1I
inactive: [1] > 100 µM | [2] 43.8 µM | [3] > 100 µM | [5] > 100 µM | [6] > 100 µM | [7] 40.1 µM | [8] 46.6 µM | [9] 52.6 µM | [16] > 100 µM | [10] 71.1 µM | [11] 38.4 µM | [12] 96.8 µM | [13] > 100 µM | [14] > 100 µM | [15] 65.8 µM

O=C(CC(=O)Nc1ccc(Cl)cc1)NNCC(=O)Nc1nc(-c2ccccc2)cs1
inactive: [1] > 100 µM | [2] > 100 µM | [3] > 100 µM | [4] > 100 µM | [5] > 100 µM | [8] > 100 µM | [9] 72.4 µM | [16] > 100 µM | [10] > 100 µM | [13] > 100 µM | [15] > 100 µM

CC(C)(C)c1ccc(OC2CCO2)cc1 (stereo not drawn)
inactive: [1] 42.6 µM | [2] 25.9 µM | [3] 34.2 µM | [4] 27.5 µM | [5] 52.2 µM | [6] 43.2 µM | [7] 38.1 µM | [8] 55.5 µM | [9] 17.3 µM | [10] 21 µM | [12] 31.6 µM | [13] 18.7 µM | [14] 67 µM | [15] 36.3 µM

CCOc1ccc(/N=C(/NC(=O)c2ccccc2)SC)cc1
inactive: [1] > 100 µM | [3] > 100 µM | [4] > 100 µM | [5] > 100 µM | [6] > 100 µM | [7] > 100 µM | [8] > 100 µM | [9] > 100 µM | [16] > 100 µM | [10] > 100 µM | [11] > 100 µM | [12] > 100 µM | [13] > 100 µM | [14] > 100 µM | [15] > 100 µM

CCCCc1c2c(nc3c1CCC/C3=C\c1ccccc1)/C(=C/c1ccccc1)CCC2
inactive: [1] > 100 µM | [2] > 100 µM | [4] > 100 µM | [5] > 100 µM | [8] > 100 µM | [9] > 100 µM | [16] > 100 µM | [10] > 100 µM | [12] > 100 µM | [13] > 100 µM | [14] > 100 µM | [15] > 100 µM

C#CCN(C(=O)C(F)(F)F)c1ccc(C(=O)c2ccc(N(CC#C)C(=O)C(F)(F)F)cc2)cc1
inactive: [1] 33.2 µM | [2] 32.2 µM | [3] 28.7 µM | [4] 40.9 µM | [5] 46.5 µM | [8] 23.2 µM | [9] 21 µM | [10] 34.5 µM | [11] 33.7 µM | [12] 26.4 µM | [13] 31.6 µM | [14] 32.6 µM | [15] > 100 µM

Cc1ccc(C)c2sc3cc(=O)ccc-3nc12
inactive: [1] 18.2 µM | [2] 33.8 µM | [3] 21.1 µM | [4] 44.1 µM | [5] 91.6 µM | [7] 22 µM | [8] 29 µM | [9] 16 µM | [10] 54.3 µM | [11] 53.3 µM | [12] 35.1 µM | [13] 35.7 µM | [15] 16.5 µM

Source: ChEMBL document CHEMBL1201862, “PubChem BioAssay data set” (2004)
